In ChEMBL document CHEMBL1641551, “Glycosylated nordihydroguaiaretic acids as anti-cancer agents” (Bioorg Med Chem Lett, 2011):
The source made the active and inactive calls. The calls are words filed in the database; no cut-off is given here.

Columns and labels:
HT-29 = test: Cytotoxicity against human HT-29 cells after 3 days by MTT assay; assay type: functional, cell-based
MCF7 = test: Cytotoxicity against human MCF7 cells after 3 days by MTT assay; assay type: functional, cell-based
NCI/ADR-RES = test: Cytotoxicity against human NCI/ADR-RES cells after 3 days by MTT assay; assay type: functional, cell-based
LNCaP = test: Cytotoxicity against human LNCAP cells after 3 days by MTT assay; assay type: functional, cell-based; conditions: 72 h
[1] = Cytotoxicity against human Hep3B cells after 3 days by MTT assay; assay type: functional, cell-based, Hep 3B2; conditions: 72 h

SMILES | Activity (HT-29) | Activity (MCF7) | Activity (NCI/ADR-RES) | IC50 (HT-29; HT-29, 72 h) | IC50 (MCF7; MCF7, 72 h) | IC50 (NCI/ADR-RES; 72 h) | IC50 (LNCaP) | IC50 [1]
C[C@H](Cc1ccc(OCc2cn(CCO)nn2)c(OCc2cn(CCO)nn2)c1)[C@@H](C)Cc1ccc(OCc2cn(CCO)nn2)c(OCc2cn(CCO)nn2)c1 | inactive | inactive | inactive |  |  |  |  | 
COc1ccc(C[C@@H](C)[C@@H](C)Cc2ccc(OC)c(OC)c2)cc1OC [TERAMEPROCOL] |  |  |  | ≤ 10 µM | ≤ 10 µM | ≤ 10 µM | ≤ 10 µM | ≤ 10 µM
C[C@H](Cc1ccc(OCc2cn(CCCCCCO[C@@H]3O[C@H](CO)[C@H](O)[C@H](O)[C@H]3O)nn2)c(OCc2cn(CCCCCCO[C@@H]3O[C@H](CO)[C@H](O)[C@H](O)[C@H]3O)nn2)c1)[C@@H](C)Cc1ccc(OCc2cn(CCCCCCO[C@@H]3O[C@H](CO)[C@H](O)[C@H](O)[C@H]3O)nn2)c(OCc2cn(CCCCCCO[C@@H]3O[C@H](CO)[C@H](O)[C@H](O)[C@H]3O)nn2)c1 | inactive | inactive | inactive |  |  |  |  | 88 µM
C[C@H](Cc1ccc(OCc2cn(CCCCCCO[C@@H]3O[C@H](CO)[C@@H](O)[C@H](O)[C@H]3O)nn2)c(OCc2cn(CCCCCCO[C@@H]3O[C@H](CO)[C@@H](O)[C@H](O)[C@H]3O)nn2)c1)[C@@H](C)Cc1ccc(OCc2cn(CCCCCCO[C@@H]3O[C@H](CO)[C@@H](O)[C@H](O)[C@H]3O)nn2)c(OCc2cn(CCCCCCO[C@@H]3O[C@H](CO)[C@@H](O)[C@H](O)[C@H]3O)nn2)c1 | inactive | inactive | inactive |  |  |  |  | 83 µM
C[C@H](Cc1ccc(OCc2cn(CCO[C@@H]3O[C@H](CO)[C@H](O)[C@H](O)[C@H]3O)nn2)c(OCc2cn(CCO[C@@H]3O[C@H](CO)[C@H](O)[C@H](O)[C@H]3O)nn2)c1)[C@@H](C)Cc1ccc(OCc2cn(CCO[C@@H]3O[C@H](CO)[C@H](O)[C@H](O)[C@H]3O)nn2)c(OCc2cn(CCO[C@@H]3O[C@H](CO)[C@H](O)[C@H](O)[C@H]3O)nn2)c1 | inactive | inactive | inactive |  |  |  |  | 
C[C@H](Cc1ccc(OCc2cn(CCCCCCO)nn2)c(OCc2cn(CCCCCCO)nn2)c1)[C@@H](C)Cc1ccc(OCc2cn(CCCCCCO)nn2)c(OCc2cn(CCCCCCO)nn2)c1 | inactive | inactive | inactive |  |  |  |  | 
